Measurements from the NIST ThermoML archive (doi:10.1016/j.jct.2010.04.019).

Assay: molar heat capacity at constant pressure; xn = mol fraction of the nth substance listed
Details: 101 kPa, Liquid, Vacuum adiabatic calorimetry

CC#N [acetonitrile] + O
molar heat capacity at constant pressure [J/K/mol]
Details	283.15 K	298.15 K	313.15 K	328.15 K
x1 = 0.0112	76.78	76.64	76.74	76.89
x1 = 0.0194	77.58	77.54	77.7	77.9
x1 = 0.0286	78.38	78.45	78.67	78.89
x1 = 0.0383	79.1	79.27	79.51	79.77
x1 = 0.0497	79.91	80.02	80.18	80.51
x1 = 0.0611	80.52	80.57	80.8	81
x1 = 0.0702	80.89	80.95	81.21	81.46
x1 = 0.0804	81.26	81.33	81.57	81.9
x1 = 0.091	81.66	81.73	81.99	82.33
x1 = 0.1007	81.99	82.06	82.36	82.7
x1 = 0.2124	85.36	85.66	86.24	86.82
x1 = 0.3063	87.72	88.31	89.08	89.92
x1 = 0.3987	89.89	90.7	91.59	92.56
x1 = 0.4856	91.57	92.38	93.42	94.38
x1 = 0.6011	93.03	93.96	94.89	95.86
x1 = 0.7107	93.7	94.44	95.33	96.16
x1 = 0.8024	93.56	94.16	94.79	95.62
x1 = 0.9005	92.77	93.28	93.87	94.55
x1 = 0.9091	92.66	93.17	93.75	94.42
x1 = 0.9203	92.52	93.01	93.59	94.24
x1 = 0.9316	–	92.85	93.41	94.06
x1 = 0.9402	92.25	92.73	93.29	93.94
x1 = 0.9496	92.11	92.59	93.14	93.77
x1 = 0.9604	91.94	92.4	92.95	93.58
x1 = 0.9711	91.77	92.22	92.76	93.38
x1 = 0.9803	91.61	92.06	92.59	93.21
x1 = 0.991	91.42	91.87	92.39	93
x1 = 1	91.25	91.69	92.21	92.82

O [water] + CC#N
x2 = 0
Details	molar heat capacity at constant pressure [J/K/mol]
283.15 K	75.52
298.15 K	75.29
313.15 K	75.27
328.15 K	75.34
